Source: US20250241879A1, “CAPSAICIN SEQUENTIAL DOSING METHOD FOR TREATMENT OF KNEE JOINT PAIN” (priority 2018, published 2025)

Key:
[1] = test system: human patients with knee osteoarthritis; test: Procedure pain (NPRS) due to intraarticular trans-capsaicin, Breg pad vs Elasto-Gel wrap cooling (Example 8); type: in vivo; conditions: four patients (Example 8), 1 mg intraarticular
Experimental: (§1) Human patients experiencing osteoarthritic knee joint pain were subjected to two different protocols for intraarticular administration of trans-capsaicin. Temporary pain expected due to administration of capsaicin was analyzed, along with the intraarticular temperature of the knee joint and the temperature of the patient's skin in the area to be cooled.
One of the protocols utilized a Breg Knee WrapOn Polar Pad (as illustrated in FIG. 1) that utilizes circulating ice-water to achieve cooling, where the pad is placed on skin surrounding the knee in order to cool the knee joint. The other protocol utilized an Elasto-Gel All Purpose Therapy Wrap measuring 6 inches by 24 inches in size, in order to cool the knee joint. A temperature probe was placed into the intraarticular space of the patient's knee joint to measure intraarticular temperature of the knee joint. A temperature probe was also placed on the skin in the area to be cooled in order to measure skin temperature in the area to be cooled.
Experimental procedure used was the same as described in Example 8 herein, except that an Elasto-Gel All Purpose Therapy Wrap measuring 6 inches by 24 inches in size was used to cool the knee joint, in lieu of the ice pack. The Elasto-Gel All Purpose Therapy Wrap was removed from a freezer (approximately 0° F.) just prior to use.

[2] = test system: human patients with bilateral knee osteoarthritis; test: Procedure pain (NPRS) due to intraarticular trans-capsaicin, shortened cooling protocol, Breg pad vs Elasto-Gel wrap (Example 9); type: in vivo; conditions: four patients (Example 9), 1 mg intraarticular
Experimental: as §1
(§2) One of the protocols utilized a Breg Knee WrapOn Polar Pad (as illustrated in FIG. 1) that utilizes circulating ice-water to achieve cooling, where the pad is placed on skin surrounding the knee in order to cool the knee joint. The other protocol utilized an Elasto-Gel All Purpose Therapy Wrap measuring 6 inches by 24 inches in size to cool the knee joint. The Elasto-Gel All Purpose Therapy Wrap was removed from a freezer (approximately 0° F.) just prior to use. A temperature probe was placed into the intraarticular space of the patient's knee joint to measure intraarticular temperature of the knee joint. A temperature probe was also placed on the skin in the area to be cooled in order to measure skin temperature in the area to be cooled. […]
as §2, with “by 24 inches, whereby the wrap is placed around the knee joint in order” for “by 24 inches in size”, “joint in order to cool” for “inches in size to cool”, “knee joint. At the discretion of the physician performing the procedure, in order to reduce discomfort for the patient, the protocol authorized the physician to instill a volume of 1-2 cc of 2% w/w lidocaine (without epinephrine) into the skin and subcutaneous tissue of the knee at the site of intra-articular probe insertion. A temperature” for “knee joint. A temperature”
Patients receiving cooling of the knee joint using the Elasto-Gel All Purpose Therapy Wrap were subjected to the following procedure: • Placement of intraarticular temperature probe and skin temperature probe. At the discretion of the physician performing the procedure, in order to reduce discomfort for the patient, the protocol authorized the physician to instill a volume of 1-2 cc of 2% w/w lidocaine (without epinephrine) into the skin and subcutaneous tissue of the knee at the site of intra-articular probe insertion. • Cooling using the designated technique was performed for 30 minutes (+/−2 minutes). • Cooling apparatus was removed from the patient's knee. • Intraarticular injection of lidocaine 2% w/w (without epinephrine) 15 mL solution into the patient's knee joint. • Intraarticular injection of the investigational medicinal product (IMP) was performed to deliver trans-capsaicin in the amount of 1 mg. The trans-capsaicin was injected, using the same needle as the lidocaine 2% w/w (without epinephrine), 3 minutes after the intra-articular injection of lidocaine 2% w/w (without epinephrine). The IMP was provided as a pre-filled syringe containing 2 mL of fluid containing trans-capsaicin at a concentration of 0.5 mg/mL. • Knee joint was flexed and extended five times over 1 minute to ensure appropriate distribution of IMP. • The temperature probe was removed approximately 30 minutes after removal of the cooling apparatus.
Pain due to injection of trans-capsaicin was assessed on a Numerical Pain Rating scale (0-10) for 75 minutes after injection of trans-capsaicin. A verbal NPRS was used to assess procedure pain during the study. […]

[3] = Ice-Gel Pack (Elasto-Gel wrap), 30 min
[4] = Ice-Gel Pack (Elasto-Gel wrap), 50 min
[5] = Ice-Gel Pack (Elasto-Gel wrap), 70 min
[6] = Ice-Gel Pack (Elasto-Gel wrap), 80 min
[7] = Ice-Gel Pack (Elasto-Gel wrap), 90 min
[8] = Ice-Gel Pack (Elasto-Gel wrap), 100 min
[9] = Ice-Gel Pack (Elasto-Gel wrap), 110 min
[10] = Ice-Gel Pack (Elasto-Gel wrap), Baseline
[11] = Standard Cooling Device (Breg pad), 30 min
[12] = Standard Cooling Device (Breg pad), 50 min
[13] = Standard Cooling Device (Breg pad), 70 min
[14] = Standard Cooling Device (Breg pad), 80 min
[15] = Standard Cooling Device (Breg pad), 90 min
[16] = Standard Cooling Device (Breg pad), 100 min
[17] = Standard Cooling Device (Breg pad), 110 min
[18] = Standard Cooling Device (Breg pad), Baseline

`COc1cc(CNC(=O)CCCCC=CC(C)C)ccc1O` [trans-capsaicin, N-[(4-hydroxy-3-methoxyphenyl)methyl]-8-methylnon-6-enamide] was tested. Which “Knee Pain (NPRS)” value ([1]; Ice-Gel Pack (Elasto-Gel wrap), 20 min) did it give?
Its value is 0.8 (+/−0.5).

What about the “Knee Pain (NPRS)” value [1, 3] of the same compound?
The value was 0.5 (+/−0.6).

What about the “Knee Pain (NPRS)” value [1, 4] of the same compound?
The value was 0.8 (+/−1.0).

What about the “Knee Pain (NPRS)” value [1, 5] of the same compound?
Its value is 4.8 (+/−3.2).

And the “Knee Pain (NPRS)” value [1, 6]?
Its value is 4.3 (+/−3.0).

What about the “Knee Pain (NPRS)” value [1, 7] of the same compound?
Its value is 3.0 (+/−1.8).

And the “Knee Pain (NPRS)” value [1, 8]?
The value was 2.8 (+/−1.5).

What about the “Knee Pain (NPRS)” value [1, 9] of the same compound?
Its value is 2.8 (+/−2.1).

And the “Knee Pain (NPRS)” value ([1]; Ice-Gel Pack (Elasto-Gel wrap), 120 min)?
The value was 4.5 (+/−3.3).

And the “Knee Pain (NPRS)” value ([1]; Ice-Gel Pack (Elasto-Gel wrap), 130 min)?
Its value is 3.0 (+/−1.4).

And the “Knee Pain (NPRS)” value [1, 10]?
The value was 1.0 (+/−0.8).

And the “Knee Pain (NPRS)” value ([1]; Standard Cooling Device (Breg pad), 20 min)?
The value was 0.5 (+/−0.6).

What about the “Knee Pain (NPRS)” value [1, 11] of the same compound?
The value was 0.5 (+/−0.6).

And the “Knee Pain (NPRS)” value [1, 12]?
The value was 0.8 (+/−1.0).

What about the “Knee Pain (NPRS)” value [1, 13] of the same compound?
Its value is 2.5 (+/−3.7).

And the “Knee Pain (NPRS)” value [1, 14]?
The value was 2.5 (+/−3.0).

And the “Knee Pain (NPRS)” value [1, 15]?
Its value is 2.5 (+/−2.4).

What about the “Knee Pain (NPRS)” value [1, 16] of the same compound?
Its value is 1.8 (+/−1.5).

And the “Knee Pain (NPRS)” value [1, 17]?
The value was 1.8 (+/−1.5).

What about the “Knee Pain (NPRS)” value ([1]; Standard Cooling Device (Breg pad), 120 min) of the same compound?
Its value is 1.3 (+/−1.3).

And the “Knee Pain (NPRS)” value ([1]; Standard Cooling Device (Breg pad), 130 min)?
Its value is 1.5 (+/−1.0).

And the “Knee Pain (NPRS)” value [1, 18]?
Its value is 0.5 (+/−0.6).

And the “Knee Pain (NPRS)” value [2, 3]?
Its value is 0.0 (+/−0.0).

What about the “Knee Pain (NPRS)” value ([2]; Ice-Gel Pack (Elasto-Gel wrap), 40 min) of the same compound?
Its value is 0.0 (+/−0.0).

What about the “Knee Pain (NPRS)” value [2, 4] of the same compound?
The value was 1.5 (+/−2.4).

And the “Knee Pain (NPRS)” value ([2]; Ice-Gel Pack (Elasto-Gel wrap), 60 min)?
The value was 2.8 (+/−3.1).

What about the “Knee Pain (NPRS)” value [2, 5] of the same compound?
Its value is 1.0 (+/−0.8).

What about the “Knee Pain (NPRS)” value [2, 6] of the same compound?
Its value is 1.8 (+/−2.9).

And the “Knee Pain (NPRS)” value [2, 7]?
The value was 2.5 (+/−2.9).

What about the “Knee Pain (NPRS)” value [2, 8] of the same compound?
Its value is 1.8 (+/−2.9).

What about the “Knee Pain (NPRS)” value [2, 9] of the same compound?
The value was 0.8 (+/−1.5).

And the “Knee Pain (NPRS)” value [2, 10]?
The value was 0.3 (+/−0.5).

What about the “Knee Pain (NPRS)” value [2, 11] of the same compound?
Its value is 0.0 (+/−0.0).

And the “Knee Pain (NPRS)” value ([2]; Standard Cooling Device (Breg pad), 40 min)?
The value was 0.5 (+/−1.0).

And the “Knee Pain (NPRS)” value [2, 12]?
Its value is 3.8 (+/−2.9).

What about the “Knee Pain (NPRS)” value ([2]; Standard Cooling Device (Breg pad), 60 min) of the same compound?
The value was 1.8 (+/−2.4).

What about the “Knee Pain (NPRS)” value [2, 13] of the same compound?
The value was 1.0 (+/−2.0).

And the “Knee Pain (NPRS)” value [2, 14]?
The value was 2.0 (+/−4.0).

What about the “Knee Pain (NPRS)” value [2, 15] of the same compound?
Its value is 1.5 (+/−2.4).

And the “Knee Pain (NPRS)” value [2, 16]?
The value was 0.5 (+/−1.0).

And the “Knee Pain (NPRS)” value [2, 17]?
The value was 2.0 (+/−4.0).

What about the “Knee Pain (NPRS)” value [2, 18] of the same compound?
Its value is 0.0 (+/−0.0).
